Results reported in article PMC8253220, “Molecular design, synthesis and in vitro biological evaluation of thienopyrimidine–hydroxamic acids as chimeric kinase HDAC inhibitors: a challenging approach to combat cancer” (Journal of Enzyme Inhibition and Medicinal Chemistry, 2021).
Where “and” joins values, the source holds several entries; their conditions need not be identical. Equal entries are not always repeated.

Columns and labels:
[1] = test system: RXF 393; assay: NCI one-dose screen; assay type: cell-based, human; details: Renal RXF 393, 10 µM single dose
Summary of the method: (§1)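 One concentration (10 μM) applied to each line of the full NCI-60 panel; percent growth compared against untreated cells.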

[2] = test system: A549/ATCC; assay: NCI one-dose screen; assay type: cell-based, human; details: NSCLC A549/ATCC, 10 µM single dose
Summary of the method: as §1

[3] = test system: ACHN; assay: NCI one-dose screen; assay type: cell-based, human; details: Renal ACHN, 10 µM single dose
Summary of the method: as §1

[4] = test system: SF-539; assay: NCI one-dose screen; assay type: cell-based, human; details: for Growth Percent: CNS SF-539, 10 µM single dose
Summary of the method: (§2)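 At 10 μM, a single concentration, compounds were evaluated for antiproliferative effect in the NCI 60-line screen, with growth expressed relative to untreated control cells.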

[5] = test system: OVCAR-3; assay: NCI one-dose screen; assay type: cell-based, human; details: Ovarian OVCAR-3, 10 µM single dose
Summary of the method: as §1

[6] = test system: SNB-75; assay: NCI one-dose screen; assay type: cell-based, human; details: for Growth Percent: CNS SNB-75, 10 µM single dose; for inhibition at 10 µM: Homo sapiens, CNS SNB-75, 10 μM
Summary of the method: as §2

[7] = test system: MALME-3M; assay: NCI one-dose screen; assay type: cell-based, human; details: Melanoma MALME-3M, 10 µM single dose
Summary of the method: as §1

[8] = test system: MDA-MB-231/ATCC; assay: NCI one-dose screen; assay type: cell-based, human; details: Breast MDA-MB-231/ATCC, 10 µM single dose
Summary of the method: as §1

[9] = test system: HT29; assay: NCI one-dose screen; assay type: cell-based, human; details: Colon HT29, 10 µM single dose
Summary of the method: as §1

[10] = test system: NCI-H522; assay: NCI one-dose screen; assay type: cell-based, human; details: for Growth Percent: NSCLC NCI-H522, 10 µM single dose
Summary of the method: as §2

[11] = test system: SK-OV-3; assay: NCI one-dose screen; assay type: cell-based, human; details: Ovarian SK-OV-3, 10 µM single dose
Summary of the method: as §1

[12] = test system: HCT-116; assay: NCI one-dose screen; assay type: cell-based, human; details: Colon HCT-116, 10 µM single dose
Summary of the method: as §1

[13] = target: VEGFR-2 (Homo sapiens, UniProt P35968); assay: In vitro VEGFR-2 tyrosine kinase inhibitory assay (Z'-LYTE, SelectScreen); assay type: biochemical; details: for inhibition at 0.0001 µM: 0.1 nM compound; for inhibition at 0.0001 µM / inhibition at 0.001 µM / inhibition at 0.01 µM / inhibition at 0.1 µM / inhibition at 1 µM: 10 μM ATP, read-out: % Inhibition mean, KDR (VEGFR2); for inhibition at 0.001 µM: 1 nM compound; for inhibition at 0.01 µM: 10 nM compound; for inhibition at 0.1 µM: 100 nM compound; for inhibition at 1 µM: 1000 nM compound; for IC50: read-out: IC50 in enzyme assays VEGFR-2
VEGFR-2, sequence (P35968 20-1356): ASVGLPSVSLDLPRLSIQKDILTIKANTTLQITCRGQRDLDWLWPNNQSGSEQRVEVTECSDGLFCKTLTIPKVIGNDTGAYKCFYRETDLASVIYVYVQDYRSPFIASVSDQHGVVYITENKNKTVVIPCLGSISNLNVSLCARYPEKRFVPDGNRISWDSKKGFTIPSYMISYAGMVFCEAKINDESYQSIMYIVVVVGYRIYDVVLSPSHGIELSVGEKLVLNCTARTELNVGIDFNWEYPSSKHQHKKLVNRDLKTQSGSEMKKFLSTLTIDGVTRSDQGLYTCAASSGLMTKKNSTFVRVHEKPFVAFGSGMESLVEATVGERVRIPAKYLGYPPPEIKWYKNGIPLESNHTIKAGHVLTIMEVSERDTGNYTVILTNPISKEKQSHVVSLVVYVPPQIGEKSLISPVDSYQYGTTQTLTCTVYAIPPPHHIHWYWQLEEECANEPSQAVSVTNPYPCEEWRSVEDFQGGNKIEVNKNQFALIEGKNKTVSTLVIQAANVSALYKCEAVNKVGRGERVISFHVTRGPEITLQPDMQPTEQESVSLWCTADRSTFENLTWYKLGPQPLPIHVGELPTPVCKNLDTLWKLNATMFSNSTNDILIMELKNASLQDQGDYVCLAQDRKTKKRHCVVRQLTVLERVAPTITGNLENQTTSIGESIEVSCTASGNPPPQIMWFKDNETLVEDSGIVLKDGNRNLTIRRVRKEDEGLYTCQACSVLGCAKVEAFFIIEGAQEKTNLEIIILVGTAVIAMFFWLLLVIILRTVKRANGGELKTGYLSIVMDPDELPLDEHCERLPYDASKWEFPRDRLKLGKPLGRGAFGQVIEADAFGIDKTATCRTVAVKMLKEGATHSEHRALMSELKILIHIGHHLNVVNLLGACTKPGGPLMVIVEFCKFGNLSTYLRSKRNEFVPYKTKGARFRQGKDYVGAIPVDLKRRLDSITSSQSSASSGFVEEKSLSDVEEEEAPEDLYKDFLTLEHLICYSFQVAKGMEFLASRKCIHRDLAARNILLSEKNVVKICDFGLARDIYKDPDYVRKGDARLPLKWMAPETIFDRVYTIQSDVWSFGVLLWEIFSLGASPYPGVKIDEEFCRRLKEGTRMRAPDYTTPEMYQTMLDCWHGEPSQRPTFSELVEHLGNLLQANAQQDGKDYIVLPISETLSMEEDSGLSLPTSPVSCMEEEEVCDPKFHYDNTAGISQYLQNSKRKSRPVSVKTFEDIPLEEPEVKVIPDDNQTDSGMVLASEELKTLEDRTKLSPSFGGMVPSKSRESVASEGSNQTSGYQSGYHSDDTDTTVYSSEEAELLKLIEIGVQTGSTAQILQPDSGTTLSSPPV
Description: The target compounds were evaluated for their in vitro inhibitory activities against EGFR, VEGFR-2, and HDAC6. The EGFR and VEGFR-2 inhibitory assays were performed at Thermo Fischer Scientific, Madison, WI, USA (SelectScreenServices@thermofisher.com). The HDAC inhibitory assays were performed at BPS Bioscience, San Diego, CA, USA (www.bpsbioscience.com). Initially, all of the synthesised target compounds were evaluated for their percent inhibitory activity against EGFR, VEGFR-2, and HDACs at 10 µM single dose concentration, in which their mean percent inhibition is summarised in (Figure 5, Tables 1 and [2]). Representative compounds were evaluated for their percent inhibitory activity against EGFR and VEGFR-2 at 6 different concentrations (0.1 nM, 1 nM, 10 nM, 100 nM, 1 µM, 10 µM) to subsequently calculate their IC50 values (Table 3). Additionally, all of the synthesised target compounds were submitted to the National Cancer Institute “NCI” Bethesda, Maryland, USA (www.dtp.nci.nih.gov), to evaluate theirs in vitro antiproliferative activities against NCI 60- cancer cell line panel.
In vitro enzyme inhibition determination for the synthesised compounds was carried out in Thermo Fischer Scientific, Madison, WI, USA (SelectScreenServices@thermofisher.com). The EGFR and VEGFR-2 tyrosine kinase % inhibitory activity at a single-dose concentration of 10 µM was performed initially then representative compounds were evaluated at single-dose concentrations of (0.1 nM, 1 nM, 10 nM, 100 nM, 1 µM) using ZYLTE technology. A fluorescence-based, coupled-enzyme format is employed in the biochemical assay and depends on the sensitivity of proteolytic cleavage to non-phosphorylated and phosphorylated peptides. Then IC50 values for selected compounds were determined by GraphPad Prism at Misr international university.

| SMILES | Growth Percent [1] | Growth Percent [2] | Growth Percent [3] | Growth Percent [4] | Growth Percent [5] | Growth Percent [6] | Growth Percent [7] | Growth Percent [8] | Growth Percent [9] | Growth Percent [10] | Growth Percent [11] | Growth Percent [12] | inhibition at 10 µM ([13]; 10 µM single dose) [%] | further results |
| --- | --- | --- | --- | --- | --- | --- | --- | --- | --- | --- | --- | --- | --- | --- |
| COc1cccc(NC(=O)Nc2ccc(Nc3ncnc4sc(C(=O)NCCCC(=O)NO)c(C)c34)cc2)c1 [Compound 12b, 1–(4-(6-((4-(hydroxyamino)-4-oxobutyl)carbamoyl)-5-methylthieno[2,3-d]pyrimidin-4-ylamino)phenyl)-3–(3-methoxyphenyl)urea] | 110.4% and 110.44% | 105.8% and 105.84% | 98.6% and 98.68% | 98.2% and 98.26% | 99.3% and 99.38% | 90.6% and 90.62% | 95.2% and 95.25% | 97.0% and 97.05% | 95.3% | 81.7% and 81.76% | 114.7% and 114.77% | 99.2% and 99.29% | 83 |  |
| Cc1c(C(=O)NCCCC(=O)NO)sc2ncnc(Nc3ccc(NC(=O)Nc4cccc(C(F)(F)F)c4)cc3)c12 [Compound 12c, 1–(4-(6-((4-(hydroxyamino)-4-oxobutyl)carbamoyl)-5-methylthieno[2,3-d]pyrimidin-4-ylamino)phenyl)-3–(3-(trifluoromethyl)phenyl)urea] | 108.5% and 108.58% | 107.3% and 107.34% | 105.9% and 105.92% | 71.5% and 71.52% | 117.8% and 117.86% | 70.7% and 70.76% | 116.7% and 116.65% | 99.1% and 99.12% | 104.0% and 104.09% | 94.1% and 94.19% | 113.9% and 113.94% | 107.2% and 107.24% | 103 | inhibition at 10 µM ([4]; Homo sapiens, CNS SF-539, 10 μM): 28.5%; inhibition at 10 µM [6]: 29.2%; inhibition at 0.0001 µM [13]: 5%; inhibition at 0.001 µM [13]: 10%; inhibition at 0.01 µM [13]: 5%; inhibition at 0.1 µM [13]: 36%; inhibition at 1 µM [13]: 90%; Mean % inhibition VEGFR-2 ([13]; 10 µM single dose): 100%; IC50 [13]: 185 nM |
| Cc1c(C(=O)NO)sc2ncnc(Nc3cccc4[nH]cnc34)c12 [Compound 15a, 4-(1H-benzo[d]imidazol-4-ylamino)-N-hydroxy-5-methylthieno[2,3-d]pyrimidine-6-carboxamide] | 101.2% and 101.28% | 99.5% and 99.51% | 99.1% and 99.11% | 102.5% and 102.52% | 106.1% and 106.13% | 81.0% and 81.08% | 109.7% and 109.71% | 102.4% and 102.49% | 103.9% and 103.93% | 94.4% and 94.42% | 124.5% and 124.53% | 103.9% and 103.95% | 36 |  |
| Cc1c(C(=O)NO)sc2ncnc(Nc3ccccc3)c12 [Compound 15b, N-hydroxy-5-methyl-4-(phenylamino)thieno[2,3-d]pyrimidine-6-carboxamide] | 97.2% and 97.22% | 98.3% and 98.37% | 95.0% and 95.07% | 92.8% and 92.86% | 96.9% and 96.92% | 74.2% and 74.29% | 101.18% | 100.3% and 100.34% | 100.5% and 100.52% | 86.6% and 86.62% | 125.8% and 125.83% | 102.9% | 32 |  |
| Cc1c(C(=O)NO)sc2ncnc(Nc3ccc(Cl)cc3)c12 [Compound 15c, 4–(4-chlorophenylamino)-N-hydroxy-5-methylthieno[2,3-d]pyrimidine-6-carboxamide] | 106.7% and 106.75% | 105.8% and 105.88% | 97.3% and 97.37% | 104.0% | 98.9% and 98.94% | 79.5% and 79.59% | 102.3% and 102.31% | 88.1% and 88.18% | 101.8% and 101.84% | 74.5% and 74.57% | 93.4% and 93.42% | 100.9% and 100.92% | 87 | inhibition at 10 µM [6]: 20.4%; inhibition at 10 µM ([10]; Homo sapiens, NSCLC NCI-H522, 10 μM): 25.4%; inhibition at 0.0001 µM [13]: 7%; inhibition at 0.001 µM [13]: 4%; inhibition at 0.01 µM [13]: 7%; inhibition at 0.1 µM [13]: 15%; inhibition at 1 µM [13]: 39%; IC50 [13]: 5580 nM |
| Cc1c(C(=O)NO)sc2ncnc(Nc3ccc(F)c(Cl)c3)c12 [Compound 15d, 4–(3-chloro-4-fluorophenylamino)-N-hydroxy-5-methylthieno[2,3-d]pyrimidine-6-carboxamide] | 100.3% and 100.37% | 100.7% and 100.72% | 97.6% and 97.62% | 98.5% and 98.57% | 108.5% and 108.52% | 99.2% | 116.1% and 116.15% | 97.2% and 97.25% | 102.5% and 102.54% | 88.1% and 88.16% | 114.4% and 114.45% | 106.8% | 54 |  |
| Cc1c(C(=O)NCCC(=O)NO)sc2ncnc(Nc3ccccc3)c12 [Compound 19b, N-(3-(hydroxyamino)-3-oxopropyl)-5-methyl-4-(phenylamino)thieno[2,3-d]pyrimidine-6-carboxamide] | 94.1% and 94.17% | 98.3% | 106.3% and 106.37% | 93.6% and 93.63% | 115.3% and 115.34% | 81.4% and 81.46% | 102.5% and 102.54% | 101.7% and 101.73% | 104.9% and 104.96% | 90.5% and 90.58% | 122.0% and 122.03% | 105.6% and 105.69% | 13 |  |
| Cc1c(C(=O)NCCC(=O)NO)sc2ncnc(Nc3ccc(Cl)cc3)c12 [Compound 19c, 4–(4-chlorophenylamino)-N-(3-(hydroxyamino)-3-oxopropyl)-5-methylthieno[2,3-d]pyrimidine-6-carboxamide] | 109.2% and 109.21% | 107.5% and 107.54% | 106.8% and 106.82% | 99.0% | 110.3% and 110.31% | 91.7% and 91.75% | 104.5% and 104.57% | 104.1% and 104.18% | 102.2% and 102.22% | 90.0% and 90.06% | 120.6% and 120.62% | 102.1% and 102.16% | 21 |  |
